Source: article PMC12892976, “Alkylation-based optimization of antifungal FPPS inhibitors yields a potent, broad-spectrum lipophilic zoledronate derivative” (mBio, 2025)
≈ marks a conversion by molar mass, not a printed value. Where two headings read alike, the source gives them in different places.

Tests used:
[1] = test system: Cryptococcus neoformans; experiment: MIC/MFC broth microdilution (CLSI); settings: Cryptococcus neoformans;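 further: susceptibility testing followed the CLSI M27-Ed4 broth microdilution document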
Procedure: (§1) Antifungal susceptibility was determined by broth microdilution according to the CLSI guidelines described in M27-Ed4 ([16]). […] MFC was determined by back-plating drug-treated cultures from MIC broths onto SDA plates. The MFC was defined as the lowest concentration from which no colonies could be cultured.

[2] = test system: eight fungal species; experiment: MIC/MFC summary across the eight fungal species of Table 1; assay type: cell-based
Procedure: The antifungal activity of these compounds was evaluated according to CLSI guidelines ([16]).

[3] = test system: HEK-293T cells; experiment: MTT reduction cytotoxicity assay; assay type: cell-based; settings: Homo sapiens, HEK-293T, 72 h, MTT, 72 h
[4] = test system: Saccharomyces cerevisiae; experiment: checkerboard drug interaction (FICI, MICc); assay type: cell-based; design: INH MICc / INH MICc (ITR:INH) / INH MICc (KET:INH) / INH MICc (FLC:INH): unit not given beside the values;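 further: simplified diagonal checkerboard screen pairing antifungals with FPPS inhibitors, FICI calculated under the Loewe additivity model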
[5] = test system: Candida albicans; experiment: MIC/MFC broth microdilution (CLSI); assay type: cell-based; settings: Candida albicans SC5314
Procedure: as §1

[6] = test system: Trichophyton rubrum; experiment: MIC/MFC broth microdilution (CLSI); settings: Trichophyton rubrum
Procedure: as §1

[7] = test system: Cryptococcus deuterogattii; experiment: checkerboard drug interaction (FICI, MICc);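 on all read-outs here: simplified diagonal checkerboard screen pairing antifungal drugs with FPPS inhibitors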; assay type: cell-based; settings: C. deuterogattii; for INH FD (MIC-MICc fold decrease): fold decrease of inhibitor MIC
Procedure: (§2) Drug interactions between antifungals and FPPS inhibitors were investigated using a simplified checkerboard diagonal screening method ([45]). […] FICIs were determined according to the Loewe additivity model ([17]).

[8] = test system: Cryptococcus neoformans; experiment: checkerboard drug interaction (FICI, MICc);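 on all read-outs here: antifungal plus FPPS inhibitor pairs tested against Cryptococcus neoformans by simplified diagonal checkerboard screening, FICI computed under the Loewe additivity model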; assay type: cell-based; settings: C. neoformans; for INH FD (MIC-MICc fold decrease): fold decrease of inhibitor MIC
Procedure: as §2

[9] = test system: Aspergillus flavus; experiment: MIC/MFC broth microdilution (CLSI); settings: ATCC204304
Procedure: as §1

[10] = test system: Cryptococcus deuterogattii; experiment: MIC/MFC broth microdilution (CLSI); settings: Cryptococcus deuterogattii;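 further: broth microdilution per CLSI M27-Ed4. MFC is the lowest concentration yielding no colonies when MIC broths are subcultured onto SDA plates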
Procedure: as §1

[11] = test system: eight fungal species; experiment: checkerboard interaction with azoles, summary across the eight species; assay type: cell-based; settings: geometric mean MIC in combination with azoles
Source text: Synergy between lipophilic FPPS inhibitors and azole antifungals was investigated by determining the fractional inhibitory concentration index (FICI) (Fig. 2; Table S1 Fig. S1) ([17]). […]. Derivatives PLA9 and 11, and PDA9, 11, and 12 antagonized azoles in C. albicans, C. neoformans, and C. deuterogattii, yet were largely synergistic in C. glabrata and S. cerevisiae. […].

[12] = test system: Candida albicans; experiment: checkerboard drug interaction (FICI, MICc);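 on all read-outs here: antifungal plus FPPS inhibitor combinations on Candida albicans tested by a simplified diagonal checkerboard screen, with FICI calculated under the Loewe additivity model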; assay type: cell-based; settings: C. albicans; for INH FD (MIC-MICc fold decrease): fold decrease of inhibitor MIC
Procedure: as §2

[13] = test system: Saccharomyces cerevisiae; experiment: MIC/MFC broth microdilution (CLSI); assay type: cell-based; settings: Saccharomyces cerevisiae S288c
Procedure: as §1

[14] = test system: Aspergillus flavus; experiment: checkerboard drug interaction (FICI, MICc);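 further: simplified diagonal checkerboard screen pairing azole antifungals with FPPS inhibitors, FICI calculated under the Loewe additivity model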; assay type: cell-based; design: INH MICc (KET:INH) / INH MICc (FLC:INH): unit not given beside the values; settings: A. flavus
[15] = test system: Aspergillus fumigatus; experiment: MIC/MFC broth microdilution (CLSI); settings: ATCC204305
Procedure: as §1

[16] = test system: Candida glabrata; experiment: MIC/MFC broth microdilution (CLSI); settings: Nakaseomyces glabratus, CBS138;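 further: broth microdilution following CLSI M27-Ed4, MFC taken as the lowest drug level yielding no growth once MIC wells were subcultured on SDA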
Procedure: as §1

[17] = test system: Aspergillus fumigatus; experiment: checkerboard drug interaction (FICI, MICc); assay type: cell-based;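 further: simplified diagonal checkerboard screen pairing antifungals with FPPS inhibitors against Aspergillus fumigatus, with FICI calculated under the Loewe additivity model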
Procedure: as §2

[18] = test system: Candida glabrata; experiment: checkerboard drug interaction (FICI, MICc);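 on all read-outs here: simplified diagonal checkerboard screen pairing antifungals with FPPS inhibitors, FICI calculated under the Loewe additivity model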; assay type: cell-based; settings: C. glabrata; for INH FD (MIC-MICc fold decrease): fold decrease of inhibitor MIC
Procedure: as §2

[19] = test system: Trichophyton rubrum; experiment: checkerboard drug interaction (FICI, MICc);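 further: simplified diagonal checkerboard screen pairing azole antifungals with FPPS inhibitors, FICI calculated under the Loewe additivity model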; assay type: cell-based; settings: T. rubrum
Procedure: as §2

[20] = Fractional Inhibitory Concentration Index, fluconazole + inhibitor
[21] = Fractional Inhibitory Concentration Index, itraconazole + inhibitor
[22] = Fractional Inhibitory Concentration Index, ketoconazole + inhibitor
[23] = MIC of the inhibitor in combination with fluconazole
[24] = MIC of the inhibitor in combination with itraconazole
[25] = MIC of the inhibitor in combination with ketoconazole
[26] = MIC-MICc fold decrease of fluconazole, negative = increase
[27] = MIC-MICc fold decrease of itraconazole, negative = increase
[28] = MIC-MICc fold decrease of ketoconazole, negative = increase
[29] = MIC-MICc fold decrease of the inhibitor, with fluconazole
[30] = MIC-MICc fold decrease of the inhibitor, with itraconazole
[31] = MIC-MICc fold decrease of the inhibitor, with ketoconazole
[32] = FLC:INH combination, MIC of the inhibitor in combination with FLC
[33] = FLC:INH combination, fold decrease of FLC MIC
[34] = ITR:INH combination, MIC of the inhibitor in combination with ITR
[35] = ITR:INH combination, fold decrease of ITR MIC
[36] = KET:INH combination, MIC of the inhibitor in combination with KET
[37] = KET:INH combination, fold decrease of KET MIC

## CCCCCCCCCN1CCC[C@H]1C(=O)N[C@H](CC(=O)OC)C(=O)OC [dmPDA9]
[1]
  MFC: 128 µg/mL (≈ 333 µM)
  MIC: 32 µg/mL (≈ 83.2 µM)
[2]; across eight species, read-out: Geometric mean MFC
  MFC: 181 µg/mL (≈ 471 µM)
[2]; geometric mean across eight species, read-out: GM fungal MIC
  MIC: 83 µg/mL (≈ 216 µM)
[2]; read-out: Geometric mean MIC
  MIC: 83 µg/mL (≈ 216 µM)
[3]; HEK-293T cells, read-out: IC50
  IC50: 10.4 µg/mL (≈ 27.2 µM)
[3]; read-out: HEK IC50
  IC50: 10.4 µg/mL (≈ 27.2 µM)
[4]; [20]
  FICI (FLC:INH): 1.5
[4]; [21]
  FICI (ITR:INH): 3
[4]; [22]
  FICI (KET:INH): 2.5
[4]; [23]
  INH MICc (FLC:INH): 64
[4]; [24]
  INH MICc (ITR:INH): 64
[4]; [25]
  INH MICc (KET:INH): 128
[4]; [26]
  FLC FD (FLC:INH): 2
[4]; [27]
  ITR FD (ITR:INH): -2
[4]; [28]
  KET FD (KET:INH): 2
[4]; [29]
  INH FD (FLC:INH): 1
[4]; [30]
  INH FD (ITR:INH): 1
[4]; [31]
  INH FD (KET:INH): -2
[5]
  MFC: > 128 µg/mL
  MIC: 128 µg/mL (≈ 333 µM)
[6]
  MFC: > 128 µg/mL
  MIC: 32 µg/mL (≈ 83.2 µM)
[7]; FLC:INH combination
  FICI: 3
  INH FD (MIC-MICc fold decrease): 1
[7]; [32]
  INH MICc: 128
[7]; [33]
  FLC FD (MIC-MICc fold decrease): -2
[7]; ITR:INH combination
  FICI: 1.25
  INH FD (MIC-MICc fold decrease): 4
[7]; [34]
  INH MICc: 32
[7]; [35]
  ITR FD (MIC-MICc fold decrease): 1
[7]; KET:INH combination
  FICI: 1.5
  INH FD (MIC-MICc fold decrease): 1
[7]; [36]
  INH MICc: 128
[7]; [37]
  KET FD (MIC-MICc fold decrease): 2
[8]; FLC:INH combination
  FICI: 1.25
  INH FD (MIC-MICc fold decrease): 4
[8]; [32]
  INH MICc: 32
[8]; [33]
  FLC FD (MIC-MICc fold decrease): 1
[8]; ITR:INH combination
  FICI: ≥4
  INH FD (MIC-MICc fold decrease): 1
[8]; [34]
  INH MICc: 128
[8]; [35]
  ITR FD (MIC-MICc fold decrease): -4
[8]; KET:INH combination
  FICI: ≥4
  INH FD (MIC-MICc fold decrease): 1
[8]; [36]
  INH MICc: 128
[8]; [37]
  KET FD (MIC-MICc fold decrease): -4
[9]
  MFC: > 128 µg/mL
  MIC: > 128 µg/mL
[10]
  MFC: 64 µg/mL (≈ 166 µM)
  MIC: 64 µg/mL (≈ 166 µM)
[11]
  GM fungal MICc: 55.4
[12]; FLC:INH combination
  FICI: ≥4
  INH FD (MIC-MICc fold decrease): 2
[12]; [32]
  INH MICc: 64
[12]; [33]
  FLC FD (MIC-MICc fold decrease): < -4
[12]; ITR:INH combination
  FICI: ≥4
  INH FD (MIC-MICc fold decrease): 2
[12]; [34]
  INH MICc: 64
[12]; [35]
  ITR FD (MIC-MICc fold decrease): < -4
[12]; KET:INH combination
  FICI: ≥4
  INH FD (MIC-MICc fold decrease): 2
[12]; [36]
  INH MICc: 64
[12]; [37]
  KET FD (MIC-MICc fold decrease): < -4
[13]
  MFC: 128 µg/mL (≈ 333 µM)
  MIC: 64 µg/mL (≈ 166 µM)
[14]; [20]
  FICI (FLC:INH): 2
[14]; [21]
  FICI (ITR:INH): 2
[14]; [22]
  FICI (KET:INH): 1
[14]; [23]
  INH MICc (FLC:INH): 256
[14]; [24]
  INH MICc (ITR:INH): 256
[14]; [25]
  INH MICc (KET:INH): 128
[14]; [26]
  FLC FD (FLC:INH): 1
[14]; [27]
  ITR FD (ITR:INH): 1
[14]; [28]
  KET FD (KET:INH): 2
[14]; [29]
  INH FD (FLC:INH): 1
[14]; [30]
  INH FD (ITR:INH): 1
[14]; [31]
  INH FD (KET:INH): 2
[15]
  MFC: > 128 µg/mL
  MIC: 128 µg/mL (≈ 333 µM)
[16]
  MFC: > 128 µg/mL
  MIC: 128 µg/mL (≈ 333 µM)
[17]; [20]
  FICI (FLC:INH): 1.5
[17]; [21]
  FICI (ITR:INH): 0.52
[17]; [22]
  FICI (KET:INH): 2
[17]; [23]
  INH MICc (FLC:INH): 128
[17]; [24]
  INH MICc (ITR:INH): 2
[17]; [25]
  INH MICc (KET:INH): 128
[17]; [26]
  FLC FD (FLC:INH): 2
[17]; [27]
  ITR FD (ITR:INH): 2
[17]; [28]
  KET FD (KET:INH): 1
[17]; [29]
  INH FD (FLC:INH): 1
[17]; [30]
  INH FD (ITR:INH): 64
[17]; [31]
  INH FD (KET:INH): 1
[18]; FLC:INH combination
  FICI: 2.5
  INH FD (MIC-MICc fold decrease): 4
[18]; [32]
  INH MICc: 32
[18]; [33]
  FLC FD (MIC-MICc fold decrease): -2
[18]; ITR:INH combination
  FICI: 1.13
  INH FD (MIC-MICc fold decrease): 16
[18]; [34]
  INH MICc: 8
[18]; [35]
  ITR FD (MIC-MICc fold decrease): 1
[18]; KET:INH combination
  FICI: 1.13
  INH FD (MIC-MICc fold decrease): 16
[18]; [36]
  INH MICc: 8
[18]; [37]
  KET FD (MIC-MICc fold decrease): 1
[19]; [20]
  FICI (FLC:INH): 1.25
[19]; [21]
  FICI (ITR:INH): 1.13
[19]; [22]
  FICI (KET:INH): 1.25
[19]; [23]
  INH MICc (FLC:INH): 32
[19]; [24]
  INH MICc (ITR:INH): 32
[19]; [25]
  INH MICc (KET:INH): 32
[19]; [26]
  FLC FD (FLC:INH): 4
[19]; [27]
  ITR FD (ITR:INH): 8
[19]; [28]
  KET FD (KET:INH): 4
[19]; [29]
  INH FD (FLC:INH): 1
[19]; [30]
  INH FD (ITR:INH): 1
[19]; [31]
  INH FD (KET:INH): 1
